Laboratory results reported in patent publication US9618507B2, “Methods of treating rheumatoid arthritis” (Betanien Hospital, priority 2014, dated 2017).
Like-named read-outs stand apart in the source and are kept apart here. Marks after values point to notes of the source that are not given here. Where a SMILES comes first, the peptide text is derived from it. [ ]: non-standard residue; d: D form. dPhe(4-Cl) = N[C@H](Cc1ccc(Cl)cc1)C(=O)O; d2Nal = N[C@H](Cc1ccc2ccccc2c1)C(=O)O; dCit = NC(=O)NCCC[C@@H](N)C(=O)O; d3Pal = N[C@H](Cc1cccnc1)C(=O)O

Experiments:
GnRH receptors = target: T1, GnRH receptors (Rattus norvegicus, UniProt P30969); conditions: rats; Rick F G, et al., Prostate 2011; cited from earlier work
T1 construct: through GnRH receptors in rats; host or cells: rats (in vivo)
T1 sequence (P30969 1-327): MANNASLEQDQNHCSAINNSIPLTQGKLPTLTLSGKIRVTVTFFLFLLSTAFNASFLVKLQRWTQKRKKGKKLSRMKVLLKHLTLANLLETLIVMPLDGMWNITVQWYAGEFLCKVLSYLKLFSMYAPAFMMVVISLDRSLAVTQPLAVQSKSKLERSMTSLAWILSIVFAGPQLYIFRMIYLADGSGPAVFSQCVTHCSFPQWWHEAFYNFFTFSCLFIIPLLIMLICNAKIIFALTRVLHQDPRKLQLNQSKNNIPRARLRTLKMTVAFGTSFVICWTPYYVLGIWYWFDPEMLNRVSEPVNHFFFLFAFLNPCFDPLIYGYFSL

interleukin-10 = assay: Example 2: serum cytokine, multiplex high-sensitivity assay, interleukin-10; assay type: in vivo, human; conditions: high gonadotropin patients
Description: (§1) The protocol-specified primary and secondary intention-to-treat endpoints of the original AGRA trial were analyzed in these post hoc analyses. The primary endpoint was the baseline-adjusted between-group difference in DAS28-CRP (Wells et al., supra) by day 5b. Secondary endpoints included the baseline-adjusted between-group difference in cytokines, proportions of patients achieving at least a 20%, 50%, and 70% improvement on the ACR scale (Felson D T, et al., Arthritis Rheum 1995; 38:727-35), categorical DAS28-CRP (European League Against […] [EULAR]) responses (Wells et al., supra; van Gestel A M, et al., Arthritis Rheum 1996; 39:34-40), DAS28-CRP≦3.2 (Wells et al., supra), DAS28-CRP<2.6 (Wells et al., supra), and the incidence of adverse events. Protocol-specified DAS28 outcomes were preferentially CRP-based rather than erythrocyte sedimentation rate (ESR)-based, as CRP usually changes before ESR. […] Multiplex technology (Luminex Inc., Austin, Tex.) measured these serum cytokines using high-sensitivity assays (sensitivities <0.5 pg/mL, allowing the detection of very low concentrations of cytokines) and identical lots of critical reagent of negligible cross-reactivity <2%, according to manufacturers' instructions (Bio-Rad, Hercules, Calif.). […] To enable intention-to-treat analyses with all patients N=53, non-detectable values were set at the lower limit of detection for cytokines, as is common for CRP values.
(§2) The original power calculation is previously reported (Kass A S, et al., Scand J Rheumatol Epub ahead of print 1 Nov. 2013). Baseline-adjusted between-group differences for all continuous endpoints were assessed with the use of analysis-of-covariance using outcome measurements at predefined time points as response variables, and treatment and baseline measurements as covariates. Dichotomous endpoints were compared with the Pearson chi-square test or Suissa-Shuster exact unconditional test, depending on expected-value distribution (Lydersen S, et al., Stat Med 2009; 28:1159-75). No adjustments for multiple analyses were made, owing to highly correlated endpoints. Due to skewed distributions, between-group changes of natural log-transformed cytokine levels from baseline were compared.

myeloma cells = conditions: Wen J, et al., Mol Cancer Ther 2011; cited from earlier work
[1] = system: gonadotropins, oestradiol, testosterone, cortisol; assay: Example 2: hormones (gonadotropins, oestradiol, testosterone, cortisol) in high gonadotropin patients; assay type: in vivo, human
Excerpt: Non-competitive immunofluorometric assays were used for the quantitative determination of serum LH and FSH (Dissociation Enhanced Lanthanide Fluoroimmunoassay [DELFIA] kit, Turku, Finland). A competitive immunofluorometric assay was used for the determination of serum oestradiol (DELFIA kit, Turku, Finland). A competitive radioimmunoassay was used for the quantitative determination of serum testosterone (Orion Diagnostica. Espoo, Finland). A competitive Iuminoimmunoassay was used for the quantitative determination of serum cortisol (Immulite 2000, California, USA).

CRP = conditions: high gonadotropin patients, by day 15
Description: The protocol-specified primary and secondary intention-to-treat endpoints of the original AGRA trial were analyzed in these post hoc analyses. The primary endpoint was the baseline-adjusted between-group difference in DAS28-CRP (Wells et al., supra) by day 5b. […] Multiplex technology (Luminex Inc., Austin, Tex.) measured these serum cytokines using high-sensitivity assays (sensitivities <0.5 pg/mL, allowing the detection of very low concentrations of cytokines) and identical lots of critical reagent of negligible cross-reactivity <2%, according to manufacturers' instructions (Bio-Rad, Hercules, Calif.). […]
The original power calculation is previously reported (Kass A S, et al., Scand J Rheumatol Epub ahead of print 1 Nov. 2013). Baseline-adjusted between-group differences for all continuous endpoints were assessed with the use of analysis-of-covariance using outcome measurements at predefined time points as response variables, and treatment and baseline measurements as covariates. […]

interleukin-2 = assay: Example 2: serum cytokine, multiplex high-sensitivity assay, interleukin-2; assay type: in vivo, human; conditions: high gonadotropin patients
Description: as §1, §2

[2] = system: RA patients with high gonadotropin levels; assay: Example 2: adverse events in high gonadotropin patients; assay type: in vivo, human
Description: The intention-to-treat population was predefined as all randomised patients who received any study-drug injections. Missing values were <1% and could, as predefined, be imputed with the last-observation-carried-forward. The assumptions of normality needed for analyses were approximately valid. All statistical tests were two-sided (α=0.05) and performed with Stata 12 and StatXact 9. Analyses were performed by an offsite statistician who received locked databases from blinded investigators and laboratories, and the allocation key from the offsite central office.

CC(=O)N[C@H](Cc1ccc2ccccc2c1)C(=O)N[C@H](Cc1ccc(Cl)cc1)C(=O)N[C@H](Cc1cccnc1)C(=O)N[C@@H](CO)C(=O)N[C@@H](Cc1ccc(O)cc1)C(=O)N[C@H](CCCNC(N)=O)C(=O)N[C@@H](CC(C)C)C(=O)N[C@@H](CCCNC(=N)N)C(=O)N1CCC[C@H]1C(=O)N[C@H](C)C(N)=O [cetrorelix] (Ac-[d2Nal][dPhe(4-Cl)][d3Pal]SY[dCit]LRP[dA]-NH2)
pro-inflammatory cytokine gene expression through GnRH receptors (GnRH receptors): directly decrease
IL-10 level, Final Day 15 (interleukin-10; N = 27, mean ± SD): −0.31 ± 2.1 log pg/mL
IL-10 Change from baseline by day 15 (interleukin-10; N = 27, placebo +0.13): −0.40 log pg/mL
interleukin-10 change compared with placebo (interleukin-10; by day 15, P=0.020): significantly decreased
IL-10 Baseline-Adjusted Between-Group Difference (interleukin-10; day 15, 95% CI (0.10, 1.08), P < 0.05): 0.59‡ log pg/mL
pro-inflammatory cytokine gene expression through GnRH receptors (myeloma cells): directly decrease
Cortisol change compared with placebo (words) [1]: significantly decreased
gonadotropins change compared to placebo [1]: significantly reduced
oestradiol change compared to placebo [1]: significantly reduced
testosterone change compared to placebo [1]: significantly reduced
gonadotropin levels, onset ([1]; by day 2): decreased
Cortisol between-group difference ([1]; by day 5, 95% CI 10.5 to 95.8, P=0.016): 53.1 nmol/L
Cortisol change compared with placebo (words) ([1]; listed as Cetrorelix): significantly reduced
CRP between-group difference (CRP; 95% CI 0.22 to 10.7, P=0.042): 5.45 mg/L
CRP change (CRP; placebo 0.85): -5.1 mg/L
IL-2 level, Final Day 15 (interleukin-2; N = 27, mean ± SD): −3.39 ± 2.9 log pg/mL
IL-2 Change from baseline by day 15 (interleukin-2; N = 27, placebo +0.02): −0.42 log pg/mL
interleukin-2 change compared with placebo (interleukin-2; by day 15, P=0.088): decreased non-significantly
IL-2 Baseline-Adjusted Between-Group Difference (interleukin-2; day 15, 95% CI (−1.09, 0.08)): -0.51 log pg/mL
Adverse events: Headache ([2]; N = 27): 2 (7.4) no. %
Adverse events: Injection site discomfort ([2]; N = 27): 2 (7.4) no. %
Adverse events: Nausea ([2]; N = 27): 0 no. %
Adverse events severity ([2]; high gonadotropin patients): mild
